Laboratory results taken from the NIST ThermoML archive (doi:10.1021/acs.jced.5b00197).

Legend:
[1] = xn = mol fraction of the nth substance listed; details: 96.64 kPa, Liquid, mechanical oscillator
[2] = refractive index (Na D-line) (dimensionless); xn = mol fraction of the nth substance listed; details: 94.64 kPa, Liquid, Standard Abbe refractometry

CC(=O)O [acetic acid] + Cc1ccccc1
Details	mass density, 293.15 K [kg/m3]	mass density, 298.15 K [kg/m3]	mass density, 303.15 K [kg/m3]	refractive index, 293.15 K	refractive index, 298.15 K	refractive index, 303.15 K
[1], x1 = 0.146	878.94	873.65	868.47	–	–	–
[1], x1 = 0.277	894.11	888.81	883.38	–	–	–
[1], x1 = 0.397	907.9	902.58	897.1	–	–	–
[1], x1 = 0.506	924.08	918.49	912.96	–	–	–
[1], x1 = 0.605	940.43	934.75	929.15	–	–	–
[1], x1 = 0.697	960	954.12	948.31	–	–	–
[1], x1 = 0.782	978.4	972.48	966.6	–	–	–
[1], x1 = 0.859	1000.2	994.34	988.34	–	–	–
[1], x1 = 0.897	1017.74	1011.75	1005.81	–	–	–
[1], x1 = 0.932	1027.84	1021.82	1015.9	–	–	–
[1], x1 = 0.967	1038.11	1032.17	1026.28	–	–	–
[1], x1 = 1	1049.63	1043.57	1037.64	–	–	–
[2], x1 = 0.146	–	–	–	1.48448	1.48174	1.47906
[2], x1 = 0.277	–	–	–	1.47082	1.4681	1.46535
[2], x1 = 0.397	–	–	–	1.45878	1.45618	1.45352
[2], x1 = 0.506	–	–	–	1.44593	1.44332	1.44065
[2], x1 = 0.605	–	–	–	1.43372	1.43116	1.42842
[2], x1 = 0.697	–	–	–	1.4212	1.41872	1.41617
[2], x1 = 0.782	–	–	–	1.40891	1.4065	1.40452
[2], x1 = 0.859	–	–	–	1.39681	1.39453	1.39228
[2], x1 = 0.897	–	–	–	1.38731	1.38466	1.38303
[2], x1 = 0.932	–	–	–	1.38235	1.38029	1.3782
[2], x1 = 0.967	–	–	–	1.37721	1.3752	1.37315
[2], x1 = 1	–	–	–	1.37224	1.37012	1.36809

CC(=O)O [acetic acid] + O
Details	mass density, 293.15 K [kg/m3]	mass density, 298.15 K [kg/m3]	mass density, 303.15 K [kg/m3]	refractive index, 293.15 K	refractive index, 298.15 K	refractive index, 303.15 K
[1], x1 = 0.0322	1013.1	1010.07	1007.37	–	–	–
[1], x1 = 0.0697	1029.11	1024.31	1021.16	–	–	–
[1], x1 = 0.114	1040.03	1036.43	1032.93	–	–	–
[1], x1 = 0.167	1049.79	1045.44	1039.59	–	–	–
[1], x1 = 0.231	1057.69	1053.12	1048.56	–	–	–
[1], x1 = 0.31	1064.29	1059.45	1054.48	–	–	–
[1], x1 = 0.412	1068.57	1063.31	1058.16	–	–	–
[1], x1 = 0.545	1068.93	1063.47	1058.01	–	–	–
[1], x1 = 0.629	1067.42	1061.15	1057.17	–	–	–
[1], x1 = 0.729	1062.82	1058.08	1053.26	–	–	–
[1], x1 = 0.85	1059.62	1053.73	1047.95	–	–	–
[1], x1 = 1	1049.63	1043.57	1037.64	–	–	–
[2], x1 = 0.0322	–	–	–	1.34079	1.34007	1.33927
[2], x1 = 0.0697	–	–	–	1.34792	1.34695	1.34593
[2], x1 = 0.114	–	–	–	1.35489	1.35372	1.3525
[2], x1 = 0.167	–	–	–	1.3609	1.35957	1.35822
[2], x1 = 0.231	–	–	–	1.36583	1.36436	1.36288
[2], x1 = 0.31	–	–	–	1.37062	1.369	1.36736
[2], x1 = 0.412	–	–	–	1.37406	1.37233	1.37058
[2], x1 = 0.545	–	–	–	1.37703	1.37519	1.37331
[2], x1 = 0.629	–	–	–	1.37724	1.37545	1.37349
[2], x1 = 0.729	–	–	–	1.37721	1.3753	1.37335
[2], x1 = 0.85	–	–	–	1.37559	1.37359	1.3716
[2], x1 = 1	–	–	–	1.37224	1.37012	1.36809
